Like-named read-outs stand apart in the source and are kept apart here.
How the values were obtained:
CDK6/Cyclin D3 = CDK6/Cyclin D3 (Homo sapiens (Human), UniProt Q00534); experiment: CDK6/Cyclin D3 CHEF assay (Chelation-Enhanced Fluorescence), Ki by Morrison equation; format: biochemical; conditions: geometric mean, read-out: CDK6/Cyclin D3: GMean Ki
Description: (§1) In Vitro Purified Enzyme Assays to Determine Potency for CDKs
(§2) CDK4/Cyclin D1 and CDK6/Cylcin D3 CHEF Assay
(§3) The Chelation-Enhanced Fluorescence (CHEF) monitors the phosphorylation state in real time where the level of fluorescence is directly proportional to the amount of phosphorylated substrate. CHEF exploits a synthetic α-amino acid with a side chain bearing an 8-hydroxyquinoline derivative (sulfonamido-oxine, Sox) which, upon coordination to Mg(II), relays information on the phosphorylation state of a proximal serine, threonine or tyrosine residue in peptide-based kinase substrates. Phosphorylation of a specific peptide (Catalog # AQT0258) from AssayQuant Technologies results in an increase in fluorescence at the excitation and emission wavelengths of 360 nm Ex/485 nm Em.
(§4) Examples along with DMSO (negative) and Palbociclib (positive) controls were added to 384-well plates at 100-fold their final concentrations followed by the addition of 10 nM CDK4/Cyclin D1 (LJIC-2007F1) or 10 nM CDK6/Cyclin D3 (LJIC-2009H2) for a 20 minute pre-incubation in assay buffer containing 40 mM HEPES, 1 mM Dithiothreito (DTT, 10 mM MgCl2, 1% Glycerol, 0.1% BSA. Enzyme reactions were initiated by the addition of AssayQuant Technologies peptide and ATP substrates (10 μM CHEF peptide (Catalog # AQT0258), 2 mM ATP) and allowed to proceed for 2 hours followed by fluorescence read of the reaction. Ki determinations were made from a plot of the fractional velocity as a function of inhibitor concentration fit to the Morrison equation with the enzyme concentration as a variable.
(§5) For all the CDK4 and CDK6 assays the Ki constant for compounds were calculated for each enzyme using the Morrison equation. Fractional activity was measured at different compound concentrations, [I] and the data fit to the Morrison equation where [E] is the enzyme concentration, [S] is the ATP concentration, and Kn^App is the apparent Km for ATP for each enzyme under each assay format. With the Ki calculations dependent on the assay conditions for each assay format the resulting Ki becomes assay independent with a strong one to one correlation of Ki values for compounds tested in both assay formats.
(§6) In Table 2, assay data are presented to two (2) significant figures as the geometric mean (Ki) based on the number of replicates listed (Number). A cell having NA means there was no data for that Example in the indicated assay.

CDK4/Cyclin D1 = CDK4/Cyclin D1 (Homo sapiens (Human), UniProt P11802); experiment: CDK4/Cyclin D1 CHEF assay (Chelation-Enhanced Fluorescence), Ki by Morrison equation; format: biochemical; conditions: geometric mean, read-out: CDK4/Cyclin D1 GMean Ki
CDK4/Cyclin D1, sequence (P11802 whole entry): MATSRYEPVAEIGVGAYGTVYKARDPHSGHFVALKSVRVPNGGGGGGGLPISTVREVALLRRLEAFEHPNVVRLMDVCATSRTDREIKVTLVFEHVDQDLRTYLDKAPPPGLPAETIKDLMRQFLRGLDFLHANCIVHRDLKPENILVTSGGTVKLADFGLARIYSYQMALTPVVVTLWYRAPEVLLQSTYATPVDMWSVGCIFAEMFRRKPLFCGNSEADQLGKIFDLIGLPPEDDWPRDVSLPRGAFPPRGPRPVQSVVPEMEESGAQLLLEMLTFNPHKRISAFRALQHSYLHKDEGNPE
CDK4/Cyclin D1, sequence (P24385 whole entry partner): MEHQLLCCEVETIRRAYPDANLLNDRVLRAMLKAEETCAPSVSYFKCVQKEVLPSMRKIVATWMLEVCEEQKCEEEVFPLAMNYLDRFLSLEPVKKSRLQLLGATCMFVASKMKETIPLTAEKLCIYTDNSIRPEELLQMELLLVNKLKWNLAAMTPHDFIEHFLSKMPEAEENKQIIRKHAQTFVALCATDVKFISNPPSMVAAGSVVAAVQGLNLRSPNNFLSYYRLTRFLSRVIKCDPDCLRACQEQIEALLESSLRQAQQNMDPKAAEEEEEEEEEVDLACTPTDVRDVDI
Description: as §1, §2, §3, §4, §5, §6

CDK6/Cyclin D3, sequence (Q00534 whole entry): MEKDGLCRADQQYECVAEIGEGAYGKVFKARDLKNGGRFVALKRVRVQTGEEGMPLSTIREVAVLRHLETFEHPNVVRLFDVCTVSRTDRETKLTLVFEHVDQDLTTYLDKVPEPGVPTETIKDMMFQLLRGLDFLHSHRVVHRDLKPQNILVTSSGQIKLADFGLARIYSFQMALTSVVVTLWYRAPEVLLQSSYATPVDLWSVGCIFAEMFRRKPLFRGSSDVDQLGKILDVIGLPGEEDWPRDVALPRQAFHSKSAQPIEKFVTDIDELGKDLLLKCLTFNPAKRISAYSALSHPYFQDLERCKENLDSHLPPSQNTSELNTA
CDK6/Cyclin D3, sequence (P30281 whole entry partner): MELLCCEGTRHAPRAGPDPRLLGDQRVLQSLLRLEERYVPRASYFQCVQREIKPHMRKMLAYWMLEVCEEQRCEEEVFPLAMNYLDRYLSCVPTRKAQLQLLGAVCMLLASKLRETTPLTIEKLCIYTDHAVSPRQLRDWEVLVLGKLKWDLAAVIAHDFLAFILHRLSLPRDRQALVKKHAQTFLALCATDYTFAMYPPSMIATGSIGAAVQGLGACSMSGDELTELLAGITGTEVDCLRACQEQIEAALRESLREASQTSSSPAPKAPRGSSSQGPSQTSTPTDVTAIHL

CC(=O)c1c(C)c2cnc(N[C@@H]3CCOC[C@H]3O)nc2n([C@H]2CCOC2)c1=O [Example 31]
Ki (CDK6/Cyclin D3; tested in CHEF Assay): 29 nM | Ki (CDK4/Cyclin D1; tested in CHEF Assay): 27 nM

CC(=O)c1c(C)c2cnc(N[C@@H]3CCOC[C@H]3O)cc2n([C@H]2CCOC2)c1=O [Example 11, 3-Acetyl-7-{[(3S,4R)-3-hydroxytetrahydro-2H-pyran-4-yl]amino}-4-methyl-1-[(3S)-tetrahydrofuran-3-yl]-1,6-naphthyridin-2(1H)-one]
Ki (CDK6/Cyclin D3; tested in CHEF Assay): 16 nM | Ki (CDK4/Cyclin D1; tested in CHEF Assay): 34 nM

CC(=O)c1c(C)c2cnc(N[C@H]3CCOC[C@@H]3O)cc2n(C2CCCC2)c1=O [Example 33, 3-acetyl-1-cyclopentyl-7-{[(3R,4S)-3-hydroxytetrahydro-2H-pyran-4-yl]amino}-4-methyl-1,6-naphthyridin-2(1H)-one]
Ki (CDK6/Cyclin D3; tested in CHEF Assay): 130 nM | Ki (CDK4/Cyclin D1; tested in CHEF Assay): 62 nM

CC(=O)c1c(C)c2cnc(N[C@@H]3CCOC[C@H]3O)nc2n([C@H]2C[C@H](O)C2)c1=O [Example 21, 6-acetyl-8-(trans-3-hydroxycyclobutyl)-2-{[(3S,4R)-3-hydroxytetrahydro-2H-pyran-4-yl]amino}-5-methylpyrido[2,3-d]pyrimidin-7(8H)-one]
Ki (CDK6/Cyclin D3; tested in CHEF Assay): 13 nM | Ki (CDK4/Cyclin D1; tested in CHEF Assay): 13 nM

CC(=O)c1c(C)c2cnc(N[C@@H]3CCOC[C@H]3O)cc2n(C2CCC(O)C2)c1=O (single isomer, unassigned) [Example 15]
Ki (CDK6/Cyclin D3; tested in CHEF Assay): 7.7 nM | Ki (CDK4/Cyclin D1; tested in CHEF Assay): 3.8 nM

CC(=O)c1c(C)c2cnc(N[C@@H]3CCOC[C@H]3O)nc2n([C@@H]2CC[C@@H]3C[C@@H]32)c1=O (mixture of isomers) [Example 12, 6-Acetyl-8-[(1S,2R,5R)-bicyclo[3.1.0]hexan-2-yl]-2-{[(3S,4R)-3-hydroxytetrahydro-2H-pyran-4-yl]amino}-5-methylpyrido[2,3-d]pyrimidin-7(8H)-one and 6-Acetyl-8-[(1R,2S,5S)-bicyclo[3.1.0]hexan-2-yl]-2-{[(3S,4R)-3-hydroxytetrahydro-2H-pyran-4-yl]amino}-5-methylpyrido[2,3-d]pyrimidin-7(8H)-one]
Ki (CDK6/Cyclin D3; tested in CHEF Assay): 9.7 nM | Ki (CDK4/Cyclin D1; tested in CHEF Assay): 8.5 nM

CC(=O)c1c(C)c2cnc(N[C@@H]3CCOC[C@H]3O)cc2n(C2CCCC2)c1=O [Example 5, 3-Acetyl-1-cyclopentyl-7-{[(3S,4R)-3-hydroxytetrahydro-2H-pyran-4-yl]amino}-4-methyl-1,6-naphthyridin-2(1H)-one]
Ki (CDK6/Cyclin D3; tested in both CHEF and MSA): 1.3 nM | Ki (CDK4/Cyclin D1; tested in both CHEF and MSA): 0.4 nM

CC(=O)c1c(C)c2cnc(N[C@@H]3CCOC[C@H]3O)nc2n([C@H]2CCC[C@]2(C)O)c1=O (mixture of isomers) [Example 6, 6-Acetyl-8-[(1S,2S)-2-hydroxy-2-methylcyclopentyl]-2-{[(3S,4R)-3-hydroxytetrahydro-2H-pyran-4-yl]amino}-5-methylpyrido[2,3-d]pyrimidin-7(8H)-one and 6-Acetyl-8-[(1R,2R)-2-hydroxy-2-methylcyclopentyl]-2-{[(3S,4R)-3-hydroxytetrahydro-2H-pyran-4-yl]amino}-5-methylpyrido[2,3-d]pyrimidin-7(8H)-one]
Ki (CDK6/Cyclin D3; tested in CHEF Assay): 190 nM | Ki (CDK4/Cyclin D1; tested in CHEF Assay): 113 nM

CC(=O)c1c(C)c2cnc(N[C@@H]3CCOC[C@H]3O)nc2n([C@@H]2CC[C@@H]3C[C@@H]32)c1=O (mixture of isomers) [Example 13, 6-Acetyl-8-[(1S,2R,5R)-bicyclo[3.1.0]hexan-2-yl]-2-{[(3S,4R)-3-hydroxytetrahydro-2H-pyran-4-yl]amino}-5-methylpyrido[2,3-d]pyrimidin-7(8H)-one and 6-Acetyl-8-[(1R,2S,5S)-bicyclo[3.1.0]hexan-2-yl]-2-{[(3S,4R)-3-hydroxytetrahydro-2H-pyran-4-yl]amino}-5-methylpyrido[2,3-d]pyrimidin-7(8H)-one]
Ki (CDK6/Cyclin D3; tested in CHEF Assay): 3.3 nM | Ki (CDK4/Cyclin D1; tested in CHEF Assay): 2.1 nM

CC(=O)c1c(C)c2cnc(N[C@@H]3CCOC(C)(C)[C@H]3O)nc2n(C2CCCC2)c1=O (mixture of isomers) [Example 8, 6-Acetyl-8-cyclopentyl-2-{[(3S,4R)-3-hydroxy-2,2-dimethyltetrahydro-2H-pyran-4-yl]amino}-5-methylpyrido[2,3-d]pyrimidin-7(8H)-one and 6-Acetyl-8-cyclopentyl-2-{[(3R,4S)-3-hydroxy-2,2-dimethyltetrahydro-2H-pyran-4-yl]amino}-5-methylpyrido[2,3-d]pyrimidin-7(8H)-one]
Ki (CDK6/Cyclin D3; tested in CHEF Assay): > 560 nM | Ki (CDK4/Cyclin D1; tested in CHEF Assay): > 1200 nM

CC(=O)c1c(C)c2cnc(N[C@@H]3CCOC[C@H]3O)nc2n([C@H]2CC[C@@H](O)CC2)c1=O [Example 20, 6-acetyl-8-(cis-4-hydroxycyclohexyl)-2-{[(3S,4R)-3-hydroxytetrahydro-2H-pyran-4-yl]amino}-5-methylpyrido[2,3-d]pyrimidin-7(8H)-one]
Ki (CDK6/Cyclin D3; tested in CHEF Assay): 58 nM | Ki (CDK4/Cyclin D1; tested in CHEF Assay): 54 nM

CC(=O)c1c(C)c2cnc(N[C@@H]3CCOC[C@H]3O)nc2n(C2CC(C)(C)C2)c1=O [Example 19, 6-Acetyl-8-(3,3-dimethylcyclobutyl)-2-{[(3S,4R)-3-hydroxytetrahydro-2H-pyran-4-yl]amino}-5-methylpyrido[2,3-d]pyrimidin-7(8H)-one]
Ki (CDK6/Cyclin D3; tested in CHEF Assay): 4.2 nM | Ki (CDK4/Cyclin D1; tested in CHEF Assay): 4.5 nM

CC(=O)c1c(C)c2cnc(N[C@@H]3CCOC[C@H]3O)nc2n(C2CCC2)c1=O [Example 1, 6-Acetyl-8-cyclobutyl-2-{[(3S,4R)-3-hydroxytetrahydro-2H-pyran-4-yl]amino}-5-methylpyrido[2,3-d]pyrimidin-7(8H)-one]
Ki (CDK6/Cyclin D3; tested in CHEF Assay): 2 nM | Ki (CDK4/Cyclin D1; tested in CHEF Assay): 1.8 nM

CC(=O)c1c(C)c2cnc(N[C@@H]3CCOC[C@H]3O)nc2n([C@H]2CC[C@H](N)CC2)c1=O [Example 24]
Ki (CDK6/Cyclin D3; tested in CHEF Assay): 24 nM | Ki (CDK4/Cyclin D1; tested in CHEF Assay): 13 nM

CC(=O)c1c(C)c2cnc(N[C@@H]3CCOC[C@H]3O)nc2n([C@H]2CCNC2)c1=O [Example 18, 6-Acetyl-2-{[(3S,4R)-3-hydroxytetrahydro-2H-pyran-4-yl]amino}-5-methyl-8-[(3S)-pyrrolidin-3-yl]pyrido[2,3-d]pyrimidin-7(8H)-one]
Ki (CDK6/Cyclin D3; tested in CHEF Assay): 34 nM | Ki (CDK4/Cyclin D1; tested in CHEF Assay): 9.6 nM

CC(=O)c1c(C)c2cnc(N[C@@H]3CCOC[C@H]3O)cc2n(C2CCC(O)C2)c1=O (single isomer, unassigned) [Example 14]
Ki (CDK6/Cyclin D3; tested in CHEF Assay): 2.6 nM | Ki (CDK4/Cyclin D1; tested in CHEF Assay): 0.9 nM

CC(=O)c1c(C)c2cnc(N[C@@H]3CCOC[C@H]3O)nc2n([C@H]2CCC[C@]2(C)F)c1=O (single isomer, unassigned) [Example 23]
Ki (CDK6/Cyclin D3; tested in CHEF Assay): > 560 nM | Ki (CDK4/Cyclin D1; tested in CHEF Assay): > 1100 nM

CC[C@H]1CCC[C@H]1n1c(=O)c(C(C)=O)c(C)c2cnc(N[C@@H]3CCOC[C@H]3O)nc21 [Example 10, 6-Acetyl-8-[(1R,2S)-2-ethylcyclopentyl]-2-{[(3S,4R)-3-hydroxytetrahydro-2H-pyran-4-yl]amino}-5-methylpyrido[2,3-d]pyrimidin-7(8H)-one]
Ki (CDK6/Cyclin D3; tested in CHEF Assay): 5 nM | Ki (CDK4/Cyclin D1; tested in CHEF Assay): 2.7 nM

CC(=O)c1c(C)c2cnc(N[C@@H]3CCOC[C@H]3O)nc2n(C2CCNCC2)c1=O [Example 32]
Ki (CDK6/Cyclin D3; tested in CHEF Assay): 27 nM | Ki (CDK4/Cyclin D1; tested in CHEF Assay): 16 nM

CC(=O)c1c(C)c2cnc(N[C@@H]3CCOC[C@H]3O)nc2n([C@@H]2CCNC2)c1=O [Example 27]
Ki (CDK6/Cyclin D3; tested in CHEF Assay): 25 nM | Ki (CDK4/Cyclin D1; tested in CHEF Assay): 9.9 nM

COCCN1CC2(CC(n3c(=O)c(C(C)=O)c(C)c4cnc(N[C@@H]5CCOC[C@H]5O)nc43)C2)C1 [Example 28]
Ki (CDK6/Cyclin D3; tested in CHEF Assay): 36 nM | Ki (CDK4/Cyclin D1; tested in CHEF Assay): 10 nM

CC(=O)c1c(C)c2cnc(N[C@@H]3CCOC[C@H]3O)nc2n(C2CC3(CNC3)C2)c1=O [Example 3, 6-Acetyl-8-(2-azaspiro[3.3]heptan-6-yl)-2-{[(3S,4R)-3-hydroxytetrahydro-2H-pyran-4-yl]amino}-5-methylpyrido[2,3-d]pyrimidin-7(8H)-one]
Ki (CDK6/Cyclin D3; tested in CHEF Assay): 2.1 nM | Ki (CDK4/Cyclin D1; tested in CHEF Assay): 1.1 nM

CC(=O)c1c(C)c2cnc(N[C@H]3CCOC[C@@H]3O)nc2n(C2CCCC2)c1=O [Example 30, 6-acetyl-8-cyclopentyl-2-{[(3R,4S)-3-hydroxytetrahydro-2H-pyran-4-yl]amino}-5-methylpyrido[2,3-d]pyrimidin-7(8H)-one]
Ki (CDK6/Cyclin D3; tested in CHEF Assay): > 570 nM | Ki (CDK4/Cyclin D1; tested in CHEF Assay): 430 nM

CC(=O)c1c(C)c2cnc(N[C@@H]3CCOC[C@H]3O)nc2n(C2CC3(C2)CN(CC(F)F)C3)c1=O [Example 29, 6-acetyl-8-[2-(2,2-difluoroethyl)-2-azaspiro[3.3]heptan-6-yl]-2-{[(3S,4R)-3-hydroxytetrahydro-2H-pyran-4-yl]amino}-5-methylpyrido[2,3-d]pyrimidin-7(8H)-one]
Ki (CDK6/Cyclin D3; tested in CHEF Assay): 4.9 nM | Ki (CDK4/Cyclin D1; tested in CHEF Assay): 1.9 nM

Source: US11203594B2, “Anti-proliferative agents for treating PAH” (Pfizer Inc., priority 2019, dated 2021)
